Patent US20190307754A1, “PDE9 INHIBITORS FOR TREATMENT OF PERIPHERAL DISEASES” (IMARA, INC., priority 2016, published 2019)
Several values for one entry are separate records, joined by “and”; a condition that tells them apart may be missing. Equal values may be shown once.

Experiments:
conscious dogs = assay: Cardiovascular study in beagle dogs; assay type: in vivo, dog
Protocol: The safety pharmacology assessment of Compound P3.1 included an in vitro hERG assay, neurofunctional and respiratory studies in rats, and a cardiovascular study in beagle dogs.
In a cardiovascular study conducted in 4 dogs, treatments were performed by oral gavage according to a crossover design after allowing a minimum washout period of 48 hours. In conscious dogs, Compound P3.1 at doses of 10 and 25 mg/kg had no effect on arterial blood pressure, heart rate, body temperature, cardiac conduction times, ventricular repolarization duration, QT variability, or ST segment.

[1] = Pharmacokinetics of single oral and IV dose in Sprague Dawley rats; assay type: in vivo
Protocol: Blood samples were taken at 2 minutes (IV only), then 8, 15, 30 minutes, and 1, 2, 4, 8, and 24 hours after dosing and analyzed for key PK parameters. In the rats, brain samples were taken at 24 hours and analyzed for Compound P3.1. To evaluate the penetration of Compound P3.1 across the blood-brain barrier (BBB), 10 additional rats received IV Compound P3.1 3 mg/kg and plasma and brain concentrations of Compound P3.1 were determined from 2 animals at 15 minutes, 30 minutes and 1, 2, and 4 hours after dosing.

CYP1A2 = assay: CYP induction in human hepatocytes, CYP1A2; assay type: in vitro ADME
MDR1 (P-gp) = target: T1, MDR1 (P-gp) (Homo sapiens, UniProt P08183); assay: Bi-directional permeability across MDCK-MDR1 cell monolayer; assay type: in vitro ADME; conditions: human
T1 construct: expressed in transfected cells; host or cells: MDCK-MDR1 cells
T1 sequence (P08183 whole entry): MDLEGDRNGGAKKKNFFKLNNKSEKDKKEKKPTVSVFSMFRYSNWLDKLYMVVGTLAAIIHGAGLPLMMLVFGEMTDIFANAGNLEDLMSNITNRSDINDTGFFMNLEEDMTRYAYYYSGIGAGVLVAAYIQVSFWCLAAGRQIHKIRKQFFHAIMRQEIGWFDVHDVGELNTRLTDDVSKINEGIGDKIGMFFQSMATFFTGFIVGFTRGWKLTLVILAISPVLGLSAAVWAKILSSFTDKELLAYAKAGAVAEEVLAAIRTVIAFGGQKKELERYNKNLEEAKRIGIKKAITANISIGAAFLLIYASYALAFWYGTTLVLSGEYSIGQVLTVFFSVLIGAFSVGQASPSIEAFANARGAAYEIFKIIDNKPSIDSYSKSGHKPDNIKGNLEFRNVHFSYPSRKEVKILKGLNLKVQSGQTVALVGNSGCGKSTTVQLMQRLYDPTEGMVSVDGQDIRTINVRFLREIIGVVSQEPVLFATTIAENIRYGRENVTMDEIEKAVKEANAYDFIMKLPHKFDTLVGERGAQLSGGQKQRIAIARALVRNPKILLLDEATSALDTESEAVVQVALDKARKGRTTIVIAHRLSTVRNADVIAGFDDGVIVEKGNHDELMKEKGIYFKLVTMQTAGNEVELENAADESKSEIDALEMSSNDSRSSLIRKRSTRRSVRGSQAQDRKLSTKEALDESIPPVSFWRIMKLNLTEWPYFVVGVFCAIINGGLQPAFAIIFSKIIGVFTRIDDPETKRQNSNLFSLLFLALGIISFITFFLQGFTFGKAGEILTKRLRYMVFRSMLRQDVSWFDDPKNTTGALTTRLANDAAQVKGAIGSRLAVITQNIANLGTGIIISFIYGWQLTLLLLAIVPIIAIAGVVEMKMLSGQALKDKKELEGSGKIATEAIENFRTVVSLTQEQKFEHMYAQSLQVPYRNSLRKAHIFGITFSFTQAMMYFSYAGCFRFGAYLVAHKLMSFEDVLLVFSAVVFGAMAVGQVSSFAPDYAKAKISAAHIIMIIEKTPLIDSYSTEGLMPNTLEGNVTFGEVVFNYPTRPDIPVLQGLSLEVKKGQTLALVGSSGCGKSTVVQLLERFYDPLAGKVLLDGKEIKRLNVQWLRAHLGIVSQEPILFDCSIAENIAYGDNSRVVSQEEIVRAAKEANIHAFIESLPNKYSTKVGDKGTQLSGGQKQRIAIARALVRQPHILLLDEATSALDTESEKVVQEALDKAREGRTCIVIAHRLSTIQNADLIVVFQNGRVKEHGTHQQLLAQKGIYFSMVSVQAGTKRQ

[2] = target: T2, MDR1 (human P-gp) efflux transporter (Homo sapiens, UniProt P08183); assay: as above; assay type: in vitro ADME
T2 construct: expressed in transfected cells; host or cells: MDCK-MDR1 cells
T2 sequence (P08183 whole entry): as above

in vivo = conditions: rat
Protocol: (§1) In a 14-day repeat-dose toxicity study in rats, Compound P3.1 was orally administered (gavage) at doses of 0 (vehicle), 50, 200, and 400 mg/kg/day.

rat = assay: in vivo
Protocol: as §1

[3] = Fourteen-day repeat-dose toxicity study in beagle dogs; assay type: in vivo, dog; conditions: beagle, in vivo, dog; for NOAEL at 14 days: both sexes, oral, males and females, 14-day; for Cmax / AUC(0-t): po; for AUC(0-t): read-out: AUC0-24
Protocol: (§2) In a GLP 14-day repeat-dose toxicity study in dogs, Compound P3.1 was orally administered at doses of 0, 10, 35, or 75 mg/kg/day. […] The no-observed-adverse-effect level (NOAEL) was considered to be 35 mg/kg/day in males and females.

dog = assay: as above; assay type: in vivo
Protocol: as §2

[4] = tested on: TNF-α activated human endothelial cells; assay: Micro-channel PMN adhesion assay under flow (FIG. 9); assay type: cell-based
From the text: In this study, the effects of Compound P3.1 on PMN adhesion to TNF-α activated human endothelial cell monolayers under flow conditions are investigated. It has been validated in vitro dynamic assay mimics neutrophil recruitment to endothelial cell monolayers under inflammatory conditions (TNF-α activation). In this assay, both control and sickle PMNs adhere to endothelial cells but to different degrees, reflecting in vivo conditions. The human dermal microvascular endothelial cell line HMEC-1 is used in this approach. The potential inhibitory effect of Compound P3.1 is tested in parallel and compared with the effect of HU and other PDE9 inhibitors.
In a first step, the effects of 1 uM Compound P3.1 and 10 uM HU were tested by incubating blood samples from healthy volunteers (n=3-6) (i.e., donors or donor cells) with these molecules.
Adhesion of PMNs from healthy volunteers was assessed under flow conditions, mimicking blood flow, in micro channels (Venaflux, Cellix, Ireland) coated with endothelial cell monolayers cultivated under inflammatory conditions. The adhesion assay was performed with whole fresh blood, previously incubated or not with Compound P3.1, to be closer to the physiological condition of circulation in a person, and to study the interaction between the different blood cells with PMNs.

[5] = tested on: TNF-α activated endothelium; assay: Micro-channel assay of platelet, PMN and RBC binding (FIG. 10); assay type: cell-based, human; conditions: bound cells at 30 min
Protocol: In another assay, using the same method, the reduction of PMN and RBC bindings to TNF-α activated endothelium in a micro channel well was confirmed. Platelet, PMN, and RBC in blood samples from 5 healthy normal volunteers (donors) were labelled with fluorescent dyes. The blood samples were incubated with Compound P3.1 for 2 hours or 3 hours, or HU for 3 hours, prior to running them on micro channels that were previously coated with endothelial cells activated with TNF-α. The % of bound cells was quantified at 30 min. Results are shown in FIG. 10A, FIG. 10B, and FIG. 10C.

[6] = Sprague Dawley rats, 10 mg/kg oral
[7] = rat, blood, Sprague Dawley rats, 3 mg/kg IV
[8] = rat, blood, Sprague Dawley rats, 10 mg/kg oral
[9] = female, 10 mg, females, 10 mg, Day 1
[10] = female, 10 mg, females, 10 mg, Day 14
[11] = female, 35 mg, females, 35 mg, Day 1
[12] = female, 35 mg, females, 35 mg, Day 14
[13] = female, 75 mg/kg/day, females, 75 mg, Day 1
[14] = female, 75 mg/kg/day, females, 75 mg, Day 14
[15] = male, 10 mg, males, 10 mg, Day 1
[16] = male, 10 mg, males, 10 mg, Day 14
[17] = male, 35 mg, males, 35 mg, Day 1
[18] = male, 35 mg, males, 35 mg, Day 14
[19] = male, 75 mg/kg/day, males, 75 mg, Day 1
[20] = male, 75 mg/kg/day, males, 75 mg, Day 14

**Q.** With `C[C@@H]1CN(Cc2ncccn2)C[C@H]1c1cn2c(C3CCOCC3)ncc2c(=O)[nH]1` (single isomer, unassigned) [Compound P3.1] as the compound, how does the cardiovascular effects (conscious dogs; oral gavage 75 mg/kg) read?
**A.** induced tachycardia as well as a slight, progressive and delayed decrease in blood pressure and shortened conduction times

**Q.** And the “arterial blood pressure, heart rate, body temperature, conduction times, repolarization, QT variability, ST segment” value (conscious dogs; oral gavage 10 and 25 mg/kg)?
**A.** no effect

**Q.** And the Cl_obs ([1]; Sprague Dawley rats, 3 mg/kg IV)?
**A.** 16.2 mL/min/kg

**Q.** What about the Flast [1, 6] of the same compound?
**A.** 44.6%

**Q.** And the Vss obs [1, 6]?
**A.** 44.6 L/kg

**Q.** And the bioavailability ([1]; Sprague Dawley, rat, plasma, po, 10 mg/kg, read-out: oral bioavailability Flast)?
**A.** 63.4%

**Q.** What about the AUC(0-t) [1, 7] of the same compound?
**A.** 3110 ng·h/mL

**Q.** And the C0 [1, 7]?
**A.** 4820 ng/mL

**Q.** What about the MRT [1, 7] of the same compound?
**A.** 1.44 h

**Q.** What about the half-life [1, 7] of the same compound?
**A.** 2.81 h

**Q.** And the Vd ([1]; rat, blood, Sprague Dawley rats, 3 mg/kg IV, read-out: Vss obs)?
**A.** 1.65 L/kg

**Q.** And the AUC(0-t) [1, 8]?
**A.** 4620 ng·h/mL

**Q.** What about the C0 [1, 8] of the same compound?
**A.** 1110 ng/mL

**Q.** And the Tmax [1, 8]?
**A.** 1 h

**Q.** What about the half-life [1, 8] of the same compound?
**A.** 3.01 h

**Q.** And the “continuously exposed out to” value ([1]; rats, 10 mg/kg oral)?
**A.** 8 h

**Q.** What about the “induction of CYP1A2” value (CYP1A2) of the same compound?
**A.** no potential for induction

**Q.** And the efflux ratio (MDR1 (P-gp))?
**A.** 180

**Q.** What about the “MDR1 efflux transporter substrate” value [2] of the same compound?
**A.** strong MDR1 (human P-gp) efflux transporter substrate

**Q.** And the NOAEL at 14 days (in vivo; female)?
**A.** 50 mg/kg/day and 50 mg/kg

**Q.** And the NOAEL at 14 days (in vivo; male)?
**A.** 200 mg/kg/day and 200 mg/kg

**Q.** What about the AUC(0-t) (in vivo; 400 mg/kg/day, plasma exposure (AUC0-24)) of the same compound?
**A.** > 354000 ng·h/mL

**Q.** What about the “exposure relative to anticipated efficacious dose” value (rat) of the same compound?
**A.** > 10 fold

**Q.** And the exposure vs dose (rat)?
**A.** increased proportionally with dose

**Q.** What about the “findings at highest dose” value (rat; 400 mg/kg/day) of the same compound?
**A.** reductions in body weight, weight gain, and food intake, and premature deaths

**Q.** And the NOAEL at 14 days ([3]; read-out: no-observed-adverse-effect level (NOAEL))?
**A.** 35 mg/kg/day

**Q.** What about the NOAEL at 14 days ([3]; read-out: no-observed-adverse-effect-level (NOAEL)) of the same compound?
**A.** 35 mg/kg

**Q.** And the Cmax [3, 9]?
**A.** 1970 ng/mL

**Q.** What about the AUC(0-t) [3, 9] of the same compound?
**A.** 24800 ng·h/mL

**Q.** And the Cmax [3, 10]?
**A.** 3780 ng/mL

**Q.** And the AUC(0-t) [3, 10]?
**A.** 25400 ng·h/mL

**Q.** What about the Cmax [3, 11] of the same compound?
**A.** 5180 ng/mL

**Q.** What about the AUC(0-t) [3, 11] of the same compound?
**A.** 66700 ng·h/mL

**Q.** And the Cmax [3, 12]?
**A.** 10000 ng/mL

**Q.** And the AUC(0-t) [3, 12]?
**A.** 87900 ng·h/mL

**Q.** And the Cmax [3, 13]?
**A.** 13200 ng/mL

**Q.** What about the AUC(0-t) [3, 13] of the same compound?
**A.** 152000 ng·h/mL

**Q.** And the Cmax [3, 14]?
**A.** 22100 ng/mL

**Q.** And the AUC(0-t) [3, 14]?
**A.** 224000 ng·h/mL

**Q.** What about the Cmax [3, 15] of the same compound?
**A.** 2730 ng/mL

**Q.** And the AUC(0-t) [3, 15]?
**A.** 29700 ng·h/mL

**Q.** What about the Cmax [3, 16] of the same compound?
**A.** 3120 ng/mL

**Q.** What about the AUC(0-t) [3, 16] of the same compound?
**A.** 24100 ng·h/mL

**Q.** And the Cmax [3, 17]?
**A.** 11200 ng/mL

**Q.** What about the AUC(0-t) [3, 17] of the same compound?
**A.** 114000 ng·h/mL

**Q.** What about the Cmax [3, 18] of the same compound?
**A.** 13100 ng/mL

**Q.** And the AUC(0-t) [3, 18]?
**A.** 98600 ng·h/mL

**Q.** What about the Cmax [3, 19] of the same compound?
**A.** 11000 ng/mL

**Q.** And the AUC(0-t) [3, 19]?
**A.** 137000 ng·h/mL

**Q.** And the Cmax [3, 20]?
**A.** 18300 ng/mL

**Q.** What about the AUC(0-t) [3, 20] of the same compound?
**A.** 193000 ng·h/mL

**Q.** What about the deaths (dog; dog, 10, 35, or 75 mg/kg/day, 14 days) of the same compound?
**A.** No deaths were observed at any dose

**Q.** What about the findings (dog; dog, 35 or 75 mg/kg/day, oral, 14 days) of the same compound?
**A.** emesis, liquid/loose feces, reduced food intake, and losses in body weight in some individuals

**Q.** What about the “mean exposures vs dose” value (dog; dog, Days 1 and 14) of the same compound?
**A.** increased with dose in a broadly proportionate manner

**Q.** And the “adhesion of low-binding donor cells” value ([4]; 1 uM Compound P3.1, whole blood of healthy volunteers)?
**A.** no effect

**Q.** What about the “adhesion of high-binding donor cells” value ([4]; 1 uM Compound P3.1 or 10 uM HU, whole blood of healthy volunteers) of the same compound?
**A.** reduced the adhesion of 3 of 4 high-binding donors

**Q.** What about the platelet binding ([5]; Compound P3.1 2 or 3 hours, HU 3 hours) of the same compound?
**A.** did not impact platelet binding

**Q.** And the “PMN adhesion to endothelial cells” value ([5]; blood incubated 2 or 3 hours)?
**A.** reduced

**Q.** What about the “RBC adhesion to endothelial cells” value ([5]; blood incubated 2 or 3 hours) of the same compound?
**A.** reduced
